Measured values: patent US20250295656A1, “COMBINATION OF LURBINECTEDIN AND IMMUNE CHECKPOINT INHIBITORS” (priority 2020, published 2025)

Test system: human osteosarcoma U2OS cells
Experiment: Loss of viability by nuclear morphology (Hoechst 33342), automated microscopy
Type: cell-based
Settings: lurbinectedin 1 nM to 1 μM, 4, 8, 16 and 32 hours, comparable to MTX 1 and 3 μM
Method: (a) Human osteosarcoma U2OS (a), human breast cancer HCC70 (b) human colon cancer HT29 cells (c) and murine methylcholantrene-induced fibrosarcoma MCA205 cells (d) were treated with lurbinectedin (Lurbi, 1 nM, 10 nM, 100 nM and 1 μM) for the indicated times. Subsequently, the cells were stained with 1 μM Hoechst 33342 and 1 μM propidium iodide and assessed for the loss of viability by automated image acquisition. Images were segmented, cellular debris was excluded and the number of cells with normal nuclear morphology was enumerated. Cells stably expressing CALR-GFP were treated as above. Following the cells were fixed with 3.7% of PFA, stained with 1 μM Hoechst 33342 and assessed by automated image acquisition. Images were segmented, cellular debris was excluded and CALR-GFP granularity (a surrogate marker of CALR exposure) was evaluated in the cytoplasmic region of cells with normal nuclear morphology. Wild type cells were treated as above and then assessed for cytoplasmic quinacrine granularity (after staining with the ATP-sensitive dye quinacrine together with Hoechst 33342) by automated image acquisition, segmentation and analysis. Cells stably expressing HMGB1-GFP were treated as above and then assessed for nuclear HMGB1-GFP fluorescence intensity. The cells were fixed and stained with Hoechst 33342 and images were acquired, segmented and analyzed. […]

COc1ccc2[nH]c3c(c2c1)CCN[C@]31CS[C@@H]2c3c(OC(C)=O)c(C)c4c(c3[C@H](COC1=O)N1[C@@H]2[C@H]2c3c(cc(C)c(OC)c3O)C[C@@H]([C@@H]1O)N2C)OCO4 [lurbinectedin]
cellular viability: dose- and time-dependent drop
